Assay results: PubChem BioAssay AID330 (DTP/NCI, 2004)
Several values for one entry are separate records, joined by “and”; a condition that tells them apart may be missing. Equal entries are not always repeated. Toxic doses and inconclusive results are not listed. Rule for the calls: active = survival T/C of 150% or more; inactive = T/C below 125% in these data.

Tested on: P388 leukemia ip, CD2F1 mice, survival T/C
Test: NCI In Vivo Anticancer Drug Screen. Data for tumor model P388 Leukemia (intraperitoneal) in CD2F1 (CDF1) mice
Settings: endpoint: median survival time, higher = longer survival
Outline: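 Mice carrying the transplanted tumor received test compound or vehicle. Survival was recorded in each group, and the value is the treated-group measurement divided by that of the vehicle-treated control group.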

[1] = dose: 25.0 mg/kg/injection, schedule: Q01DX009 (ip), vehicle: Klucel (hydroxypropylcellulose) (HPC)
[2] = dose: 50.0 mg/kg/injection, schedule: Q01DX009 (ip), vehicle: Klucel (hydroxypropylcellulose) (HPC)
[3] = dose: 100.0 mg/kg/injection, schedule: Q01DX009 (ip), vehicle: Klucel (hydroxypropylcellulose) (HPC)
[4] = dose: 200.0 mg/kg/injection, schedule: Q01DX009 (ip), vehicle: Klucel (hydroxypropylcellulose) (HPC)
[5] = dose: 50.0 mg/kg/injection, schedule: Q01DX005 (ip), vehicle: Klucel (hydroxypropylcellulose) (HPC)
[6] = dose: 100.0 mg/kg/injection, schedule: Q01DX005 (ip), vehicle: Klucel (hydroxypropylcellulose) (HPC)
[7] = dose: 200.0 mg/kg/injection, schedule: Q01DX005 (ip), vehicle: Klucel (hydroxypropylcellulose) (HPC)
[8] = dose: 25.0 mg/kg/injection, schedule: Q01DX005 (ip), vehicle: Klucel (hydroxypropylcellulose) (HPC)
[9] = dose: 50.0 mg/kg/injection, schedule: Q01DX009 (ip), vehicle: saline with Tween-80
[10] = dose: 100.0 mg/kg/injection, schedule: Q01DX009 (ip), vehicle: saline with Tween-80
[11] = dose: 200.0 mg/kg/injection, schedule: Q01DX009 (ip), vehicle: saline with Tween-80
[12] = dose: 400.0 mg/kg/injection, schedule: Q01DX009 (ip), vehicle: Klucel (hydroxypropylcellulose) (HPC)
[13] = dose: 100.0 mg/kg/injection, schedule: Q04DX003 (ip), vehicle: saline with Tween-80
[14] = dose: 200.0 mg/kg/injection, schedule: Q04DX003 (ip), vehicle: saline with Tween-80
[15] = dose: 400.0 mg/kg/injection, schedule: Q04DX003 (ip), vehicle: saline with Tween-80
[16] = dose: 50.0 mg/kg/injection, schedule: Q01DX005 (ip), vehicle: saline with Tween-80
[17] = dose: 100.0 mg/kg/injection, schedule: Q01DX005 (ip), vehicle: saline with Tween-80
[18] = dose: 12.5 mg/kg/injection, schedule: Q01DX009 (ip), vehicle: Klucel (hydroxypropylcellulose) (HPC)
[19] = dose: 60.0 mg/kg/injection, schedule: Q01DX005 (ip), vehicle: saline with Tween-80
[20] = dose: 120.0 mg/kg/injection, schedule: Q01DX005 (ip), vehicle: saline with Tween-80
[21] = dose: 240.0 mg/kg/injection, schedule: Q01DX005 (ip), vehicle: saline with Tween-80

Measured: T/C

CSc1nc2[nH]ncc2c(=O)[nH]1
inactive: [1] 101 % of control | [2] 99 % of control | [3] 93 % of control | [4] 86 % of control

Cc1c(C)c2c(=O)c3ccccc3[nH]c2c2ccccc12
inactive: [5] 108 % of control | [6] 98 % of control | [7] 109 % of control

COC(=O)C1=NC(=S)N=C(C(=O)OC)C1(C)C(=O)c1ccccc1
inactive: dose: 60.0 mg/kg/injection, schedule: Q01DX005 (ip), vehicle: saline 95 % of control | dose: 120.0 mg/kg/injection, schedule: Q01DX005 (ip), vehicle: saline 95 % of control | dose: 240.0 mg/kg/injection, schedule: Q01DX005 (ip), vehicle: saline 118 % of control

COC(=O)N1C2CCCCC2=NN(c2ccccc2)N1C(=O)OC (stereo unspecified)
inactive: [8] 100 % of control | [5] 98 % of control | [6] 93 % of control | [7] 91 % of control

CC1(c2ccc3c(c2)OCO3)OC(CCl)CS1 (stereo unspecified)
inactive: [9] 101 % of control | [10] 101 % of control | [11] 101 % of control

CNC(=O)OCc1ccc(NCCN(C)C)c2c(=O)c3cc(O)ccc3sc12
inactive: dose: 12.5 mg/kg/injection, schedule: Q01DX005 (ip), vehicle: saline with Tween-80 112 % of control

ICC1(CI)COC1
inactive: [3] 105 % of control | [4] 104 % of control | [12] 99 % of control

Nc1ccccc1N=C(CC(=O)c1ccco1)C(F)(F)F
inactive: dose: 6.25 mg/kg/injection, schedule: Q01DX009 (ip), vehicle: saline 99 % of control | dose: 25.0 mg/kg/injection, schedule: Q01DX009 (ip), vehicle: saline 91 % of control | dose: 100.0 mg/kg/injection, schedule: Q01DX009 (ip), vehicle: saline 88 % of control | dose: 200.0 mg/kg/injection, schedule: Q01DX009 (ip), vehicle: saline 105 % of control

O=P(c1ccccc1)(c1ccccc1)c1ccccc1.O=P(c1ccccc1)(c1ccccc1)c1ccccc1.O=P(c1ccccc1)(c1ccccc1)c1ccccc1.O=P(c1ccccc1)(c1ccccc1)c1ccccc1.[Ce+3].[O-][Cl+3]([O-])([O-])O
inactive: dose: 50.0 mg/kg/injection, schedule: Q01DX009 (ip), vehicle: saline + Tween-80 + alcohol 96 % of control | dose: 100.0 mg/kg/injection, schedule: Q01DX009 (ip), vehicle: saline + Tween-80 + alcohol 89 % of control | dose: 200.0 mg/kg/injection, schedule: Q01DX009 (ip), vehicle: saline + Tween-80 + alcohol 87 % of control

Cn1c([N+](=O)[O-])cnc1CSC(=S)N1CCN(C(=S)SCc2ncc([N+](=O)[O-])n2C)CC1
inactive: [9] 99 % of control and 104 % of control and 96 % of control | [10] 101 % of control and 93 % of control and 95 % of control | [11] 102 % of control and 107 % of control and 92 % of control

Fc1ccc(Oc2ccc(F)cc2)cc1
inactive: dose: 50.0 mg/kg/injection, schedule: Q04DX003 (ip), vehicle: saline with Tween-80 106 % of control | [13] 107 % of control | [14] 111 % of control | [15] 109 % of control

COc1ccc(Cc2cc3c(cc2OCC(=O)N(C)C)OCO3)cc1
inactive: [5] 103 % of control | [6] 98 % of control | [7] 96 % of control

COc1cc([C@H]2OC[C@H]3[C@@H]2CO[C@@H]3c2ccc(OC(C)=O)c(OC)c2)ccc1OC(C)=O
inactive: dose: 12.5 mg/kg/injection, schedule: Q01DX005 (ip), vehicle: Klucel (hydroxypropylcellulose) (HPC) 96 % of control | [8] 93 % of control | [5] 86 % of control

CCOC(=O)/C(Cl)=C1\SN(C(=O)OCC)N=C1C
inactive: [16] 99 % of control | [17] 95 % of control | dose: 200.0 mg/kg/injection, schedule: Q01DX005 (ip), vehicle: saline with Tween-80 96 % of control

C[n+]1ccccc1-c1nc(-c2cccc[n+]2C)nc(-c2cccc[n+]2C)n1
inactive: [18] 96 % of control | [1] 88 % of control

CCCSCC
inactive: [13] 104 % of control | [14] 100 % of control | [15] 100 % of control

Cn1c(=O)[nH]c2nncnc2c1=O
inactive: dose: 2.0 mg/kg/injection, schedule: Q01DX009 (ip), vehicle: water 101 % of control | dose: 4.0 mg/kg/injection, schedule: Q01DX009 (ip), vehicle: water 100 % of control | dose: 8.0 mg/kg/injection, schedule: Q01DX009 (ip), vehicle: water 104 % of control | dose: 12.5 mg/kg/injection, schedule: Q01DX009 (ip), vehicle: water 99 % of control | dose: 16.0 mg/kg/injection, schedule: Q01DX009 (ip), vehicle: water 101 % of control | dose: 25.0 mg/kg/injection, schedule: Q01DX009 (ip), vehicle: water 117 % of control | dose: 32.0 mg/kg/injection, schedule: Q01DX009 (ip), vehicle: water 104 % of control | dose: 64.0 mg/kg/injection, schedule: Q01DX009 (ip), vehicle: water 123 % of control | dose: 375.0 micrograms/kg/injection, schedule: Q01DX009 (ip), vehicle: saline 97 % of control | dose: 750.0 micrograms/kg/injection, schedule: Q01DX009 (ip), vehicle: saline 100 % of control | dose: 1500.0 micrograms/kg/injection, schedule: Q01DX009 (ip), vehicle: saline 91 % of control | dose: 3000.0 micrograms/kg/injection, schedule: Q01DX009 (ip), vehicle: saline 100 % of control

CCC1(O)CC(OC2CC(N(C)C)C(OC3CC(O)C(O)C(C)O3)C(C)O2)c2c(cc3c(c2O)C(=O)c2c(O)ccc(O)c2C3=O)C1C(=O)OC (stereo unspecified)
inactive: dose: 3.13 mg/kg/injection, schedule: Q04DX003 (ip), vehicle: Klucel (hydroxypropylcellulose) (HPC) 100 % of control | dose: 6.25 mg/kg/injection, schedule: Q04DX003 (ip), vehicle: Klucel (hydroxypropylcellulose) (HPC) 110 % of control | dose: 50.0 mg/kg/injection, schedule: Q04DX003 (ip), vehicle: Klucel (hydroxypropylcellulose) (HPC) 120 % of control

CCOC(=O)C1=C(C(=O)c2ccccc2)C(c2cccc([N+](=O)[O-])c2)C(C(=O)c2ccccc2)=C(C(=O)OCC)N1
inactive: dose: 30.0 mg/kg/injection, schedule: Q01DX005 (ip), vehicle: saline with Tween-80 104 % of control | [19] 104 % of control | [20] 104 % of control | [21] 104 % of control

COc1ccc(-c2sc(/N=C/c3ccc(N(C)CCC#N)cc3)c(C#N)c2C)cc1OC
inactive: dose: 3.13 mg/kg/injection, schedule: Q01DX009 (ip), vehicle: Klucel (hydroxypropylcellulose) (HPC) 89 % of control | dose: 6.25 mg/kg/injection, schedule: Q01DX009 (ip), vehicle: Klucel (hydroxypropylcellulose) (HPC) 91 % of control | [18] 91 % of control | [1] 90 % of control

O=C1C=CC(=Nc2ccc3c(c2)C(=O)c2ccccc2-3)O1
inactive: [16] 111 % of control | [17] 115 % of control

OC(c1ccncc1)(c1ccc(Cl)cc1)c1cccs1 (stereo unspecified)
inactive: [2] 101 % of control | [3] 98 % of control | [4] 93 % of control

C=C(CBr)CCCCC
inactive: [19] 104 % of control | [20] 105 % of control | [21] 117 % of control

N#CC1=C(N)CCC1
inactive: dose: 6.25 mg/kg/injection, schedule: Q01DX009 (ip), vehicle: saline with Tween-80 100 % of control | dose: 12.5 mg/kg/injection, schedule: Q01DX009 (ip), vehicle: saline with Tween-80 95 % of control

CCOC(=O)C1Cc2c([nH]c(=O)[nH]c2=O)OC1c1ccc([N+](=O)[O-])cc1 (stereo unspecified)
inactive: [5] 97 % of control | [6] 89 % of control | [7] 94 % of control

N#CCCCCCCCCCCCCCC1C=CCC1 (stereo unspecified)
inactive: dose: 100.0 mg/kg/injection, schedule: Q01DX001 (ip), vehicle: saline 106 % of control | dose: 200.0 mg/kg/injection, schedule: Q01DX001 (ip), vehicle: saline 99 % of control | dose: 400.0 mg/kg/injection, schedule: Q01DX001 (ip), vehicle: saline 101 % of control

O=c1nc(-c2ccco2)sc(=O)[nH]1
inactive: [1] 109 % of control | [2] 106 % of control and 117 % of control | [3] 113 % of control | [4] 105 % of control and 121 % of control

O=C(Nc1ncnc2nc[nH]c12)c1ccccc1
inactive: [2] 107 % of control | [3] 97 % of control | [4] 101 % of control | [12] 112 % of control
